Assay results as given in patent US11542316B2, “S-Arrestin peptides and therapeutic uses thereof” (APITOPE INTERNATIONAL NV, priority 2017, dated 2023).
Ends that are not written are not given here.

How the values were obtained:
[1] = system: LN cells and splenocytes upon SAg or peptide restimulation; assay: Ex vivo tolerization experiment, DR2tg mice; format: in vivo; conditions: DR2 mice, IFN-γ
Protocol: FIG. 7: Ex vivo tolerisation protocol. Mice are injected subcutaneously in the flank with 0.1 μg/ml, 1 μg/ml and 10 μg/ml peptide on days −15, −13 and −11, followed by 3 injections of 100 μg/ml on days −8, −6 and −4 (escalating dose regime). On day 0, mice are immunized subcutaneously at the base of the tail with SAg/CFA or peptide/CFA. Mice are sacrificed 10 days after immunization to measure proliferation of LN cells and splenocytes upon SAg or peptide restimulation. LN, lymph nodes.
FIG. 11: Ex vivo tolerance induction by HIP-9K1-KKK apitope. DR2 mice are injected subcutaneously in the flank with 0.1 μg/ml, 1 μg/ml and 10 μg/ml HIP-9K1-KKK on days −15, −13 and −11, followed by 3 injections of 100 μg/ml on days −8, −6 and −4 (escalating dose regime). On day 0, mice are immunized subcutaneously at the base of the tail with HIP-9FL/CFA. Mice are sacrificed 10 days after immunization to measure proliferation of LN cells and splenocytes upon SAg or peptide restimulation. Data represent mean±SEM of the concentration values for the PBS-treated mice (black lines) and peptide-treated mice (color lines). IFN-γ production expressed as IFN-γ concentration (pg/ml). Two-way ANOVA was used to measure overall treatment effects on T cell activation and p-values are written in the graphs. Bonferonni post-hoc testing was used and significant differences are indicated in the graphs (* p<0.05; **** p<0.0001). LN, lymph nodes. (A) Tolerisation against SAg in LN. (B) Tolerisation against HIP-9FL and HIP-9K1-KKK in LN. (C) Tolerisation against SAg in spleen. (D) Tolerisation against HIP-9FL and HIP-9K1-KKK in spleen.
FIG. 13: Ex vivo tolerance induction by HIP-12G1-KKK apitope. DR2 mice are injected subcutaneously in the flank with 0.1 μg/ml, 1 μg/ml and 10 μg/ml HIP-12G1-KKK on days −15, −13 and −11, followed by 3 injections of 100 μg/ml on days −8, −6 and −4 (escalating dose regime). On day 0, mice are immunized subcutaneously at the base of the tail with HIP-12AK/CFA. Mice are sacrificed 10 days after immunization to measure proliferation of LN cells and splenocytes upon SAg or peptide restimulation. Data represent mean±SEM of the concentration values for the PBS-treated mice (black lines) and peptide-treated mice (color lines). IFN-γ production expressed as IFN-γ concentration (pg/ml). Two-way ANOVA was used to measure overall treatment effects on T cell activation and p-values are written in the graphs. Bonferonni post-hoc testing was used and significant differences are indicated in the graphs (** p<0.01; *** p<0.001: **** p<0.0001). LN, lymph nodes. (A) Tolerisation against HIP-12G1-KKK and HIP-12G1 in LN. (B) Tolerisation against HIP-12G1-KKK in spleen.
DR3tg or DR2tg mice were injected subcutaneously in the flank region with 0.1 μg, 1 μg and 10 μg of peptide on days −15, −13 and −11 respectively, followed by 3 injections of 100 μg peptide on days −8, −6 and −4 (dose escalation schedule). On day 0, the mice were immunised subcutaneously in the base of the tail with 50 μg antigen (parental peptide) emulsified in CFA (peptide/CFA). Ten days after immunisation, draining lymph nodes (LN) and spleens were harvested. LN cells and splenocytes were isolated and cultured in X-vivo 15 medium (supplemented with 2 mM L-glutamine, 50 U/mL penicillin and 50 U/mL streptomycin; Lonza) in 96-well flat bottom plates. To investigate antigen-induced cell proliferation, 0.5×10^6 cells/well were cultured (200 μl/well) for 72 hours with different antigen concentrations (0-25 μg/ml) or with 12.5 μg/ml purified protein derivative (PPD; priming control; Statens serum institut, Copenhagen, Denmark). After 72 hours, supernatant was harvested and stored at −80° C. until further analysis. IFN-γ concentrations in supernatants were assessed by cytokine ELISA (R&D Systems, Abingdon, UK) to measure cell activation.

[2] = system: SAg-specific hybridoma cells / T cell line with VAVY APC; assay: Antigen Processing Independent Presentation System (APIPS) assay, fresh or fixed VAVY APC; format: cell-based, DR3 mice; conditions: DR3 hybridoma clone (IL-2, 48 h) or T cell line (IFN-γ, 24 h)
Protocol: (§1) FIG. 2: identification of apitopes within HIP-115. (A) DR3 mice were immunized with SAg and hybridomas were generated. 5×10^4 SAg-specific hybridoma cells were cultured with 5×10^4 fresh or fixed commercial APC (VAVY) cells. T cell proliferation was measured by IL-2 ELISA on supernatants collected after 48 h. The graph represents the mean of duplicate measurements±SEM. (B) DR3 mice were immunized with HIP-115 and a T cell line was established. Ten days after immunization the LN and spleens were harvested and cultured with different concentrations of peptide (0.1-1-2.5 and 5 μg/ml); 2×10^6 cells/ml APC+1×10^6 cells/ml CD4 T cells per well. At day 7 the cells were re-stimulated with the same concentrations of peptide. On day 14 an APIPS test was done using commercial APC (VAVY). After 24 h, antigen-induced T cell activation was measured by IFN-γ ELISA and shown as IFN-γ concentration (pg/ml). The graph represents the mean of duplicate measurements±SEM. LN, lymph nodes; APC, Antigen presenting cell; APIPS, Antigen Processing Independent Presentation System.
as §1, with “3:” for “2:”, “HIP-241125.” for “HIP-115.”, “HIP-241125+HIP-24DG” for “HIP-115”
(§2) FIG. 5: Identification of apitopes within HIP-17GN. DR3 mice were immunized with HIP-17GN and a T cell line was established. Ten days after immunization the LN and spleens were harvested and cultured with different concentrations of peptide (0.1-1-2.5 and 5 μg/ml); 2×10^6 cells/ml APC+1×10^6 cells/ml CD4 T cells per well. At day 7 the cells were re-stimulated with the same concentrations of peptide. On day 14 an APIPS test was done using commercial APC (VAVY). After 24 h, antigen-induced T cell activation was measured by IFN-γ ELISA and shown as OD values. The graph represents the mean of triplicate measurements±SEM. LN, lymph nodes; APC, Antigen presenting cell; APIPS, Antigen Processing Independent Presentation System.
as §2, with “6:” for “5:”, “HIP-12AK.” for “HIP-17GN.”, “HIP-12AK” for “HIP-17GN”, “IFN-γ concentration (pg/ml).” for “OD values.”, “duplicate” for “triplicate”
Antigen-specific clones or TCL were tested for their reactivity to the peptides, presented by fixed or not fixed (fresh) cells (VAVY or MGAR) (=APCs). 5×10^4 cells from the individual clones were cultured with 10 μg/ml peptide and 5×10^4 fixed or fresh APCs. […]

[3] = system: T cell line with MGAR APC; assay: Antigen Processing Independent Presentation System (APIPS) assay, fresh or fixed MGAR APC; format: cell-based, DR2 mice; conditions: DR2 T cell line, IFN-γ, 24 h
Protocol: FIG. 4: Identification of apitopes within HIP-9FL. DR2 mice were immunized with HIP-9FL-KKK and a T cell line was established. Ten days after immunization the LN and spleens were harvested and cultured with different concentrations of peptide (0.1-1-2.5 and 5 μg/ml); 2×10^6 cells/ml APCs+1×10^6 cells/ml CD4 T cells per well. At day 7 the cells were re-stimulated with the same concentrations of peptide. On day 21 an APIPS test was done using commercial APC (MGAR). After 24 h, antigen-induced T cell activation was measured by IFN-γ ELISA and shown as OD values. The graph represents the mean of duplicate measurements±SEM. LN, lymph nodes; APC, Antigen presenting cell; APIPS, Antigen Processing Independent Presentation System.
Antigen-specific clones or TCL were tested for their reactivity to the peptides, presented by fixed or not fixed (fresh) cells (VAVY or MGAR) (=APCs). 5×10^4 cells from the individual clones were cultured with 10 μg/ml peptide and 5×10^4 fixed or fresh APCs. In the case of TCL, 5×10^4 cells were cultured with 10 μg/ml and 25 μg/ml peptide and 2.5×10^4 fixed or fresh APCs. To fixate APCs, cells were incubated with 0.5% paraformaldehyde (Merck, Darmstadt, Germany) (pH7) for 5 min at room temperature (RT). The fixation reaction was stopped by adding 0.4M glycine (Sigma-Aldrich) and washing the cells in RPMI-10% FCS. Additionally, reactivity towards human SAg protein (QBiologicals, Eurofins Amatsigroup, Ghent, Belgium) was measured to identify cryptic epitopes. After 24 h or 48 h, antigen-induced IFN-γ or IL-2 production (respectively) was measured by ELISA (R&D Systems, Abingdon, UK).
DR3tg or DR2tg mice were immunised subcutaneously in the base of the tail with 50 μg peptide emulsified in CFA (peptide/CFA). Ten days after immunisation, draining lymph nodes (LN) and spleens were harvested. […] At day 7, TCL cells were counted and cultured with fresh APC, peptides and IL-2, all at the same concentrations as above. […]

Row | Substance | tolerization against the peptide itself / parental peptide ([1]; LN) | tolerization against the peptide itself ([1]; spleen) | behaves as apitope (response to peptide presented by fresh or fixed APC) [2] | behaves as apitope (response to peptide presented by fresh or fixed APC) [3]
1 | KKKGILVSYQIKVKKKK-NH2 [HIP-12G1-KKK, KKKGILVSYQIKVKKKK] | tolerization induced | tolerization induced | behave as apitopes | 
2 | KKKVKKIKAFVEQVANVVLYSSDYKKK-NH2 [HIP-9FL-KKK] |  |  |  | behave as apitopes
3 | VKKIKAFVEQVANVVLYSSDY-NH2 [HIP-9FL] |  |  |  | behave as apitopes
